Assay results from patent publication US5763470A, “Benzopyran compounds and methods for their use” (Sugen Inc., priority 1995, dated 1998).

Tests used:
Assay type in all cases: cell-based
[1] = tested on: MCF7 cells; test: MCF-7 SRB Growth Assay; conditions: Homo sapiens, MCF7, 96 h; 10% FBS; 4 days; read-out: Cell Growth Assays, MCF7 10% FBS
Protocol: Assay 1: MCF-7 RB Growth Assay. MCF-7 cells are seeded at 2000 cells/well in a 96-well flat bottom plate in normal growth media, which was 10% FBS/RPMI supplemented with 2 mM Glutamine. The plate of cells is incubated for about 24 hours at 37° C. after which it receives an equal volume of compound dilution per well making the total volume per well 200 μl. The compound is prepared at 2 times the desired highest final concentration and serially diluted in the normal growth media in a 96-well round bottom plate and then transferred to plate of cells. DMSO serves as the vector control up to 0.2% as final concentration. The cells are then incubated at 37° C. in a humidified 5% CO2 incubator. Four days following dosing of compound, the media is 15 discarded and 200 μl/well of ice-cold 10% TCA (Trichloroacetic Acid) is added to fix cells. After 60 minutes at 4° C., the TCA is discarded and the plate is rinsed 5 times with water. The plate is then air-dried and 100 μl/well of 0.4% SRB (Sulforhodamine B from Sigma) 20 in 1% Acetic Acid is added to stain cells for 10 minutes at room temperature. The SRB is discarded and the plate is rinsed 5 times with 1% Acetic Acid. After the plate is completely dried, 100 μl/well of 10 mM Tris-base is added to solubilize the dye. After 5 to 10 minutes, the plate is read on a Dynatech ELISA Plate Reader at dual wavelengths at 570 nm and 630 nm. […]

[2] = tested on: NIH3T3 c7 cells; test: Cell growth assay, 3T3 control cells (beside 3T3 IGF-1R); conditions: Mus musculus, 10% FBS, column beside 3T3 IGF-1R, read-out: Cell Growth Assays, 3T3 10% FBS
Protocol: (§1) a. The NIH3T3/IGF-1R (10% FBS/2 mM glutamine/DMEM) and NIH3T3 c7 (10% calf serum/2 mM glutamine/DMEM) cell lines were used wherein the NIH3T3 cells (and cells derived from them) were handled such that they were not allowed to become confluent, thus decreasing the likelihood of spontaneous transformation.
(§2) Day 0: Cell Plating--Trypsinize and count NIH3T3/IGF-1R and NIH3T3 c7 cells. Dilute in growth media to 2000 cells/200 μl and seed flat bottom 96-well plates with 200 μl/well, one plate for two compounds for each cell line.
Day 4: Refeed--Repeat steps above, adding exactly the same IGF-1 and compound concentration to each well as before.
Using wells in column 2 (treated with IGF-1 but not compound) as 100%, calculate percent of control for each concentration of compound.
Use a curve fit method to graph percent of control vs. log(molar concentration) and determine the IC50.

[3] = tested on: NIH3T3C7 cells; test: 3T3/HER2 Cell Growth Assay, 3T3 control cells (beside 3T3 HER-2); conditions: 96 h; 10% FBS; column beside 3T3 HER-2; 4 days; read-out: Cell Growth Assays, 3T3 10% FBS
Protocol: (§3) The NIH3T3 growth assay, using cell lines capable of expressing HER2, was carried out as follows:
(§4) m. NIH3T3C7 cells in 10% CS+2 mM glutamine DMEM HER2C7 cells in 2% FBS+2 mM glutamine DMEM
(§5) 1. HER2C7 (engineered to express HER2) and NIH3T3C7 (as the control) cells are used for this assay. NIH3T3C7 cells are seeded at 2500 cells/well, […] in 10% CS+2 mM glutamine DMEM, in a 96 well plate; HER2C7 cells are seeded at 6000 cells/well, 100 μl/well in 2% FBS+2 mM glutamine DMEM, in a 96 well plate. Cells are incubated at 37° C., 5% CO2 overnight to allow for cell attachment to the plate;
(§6) 2. The TBST compound is added to the cells at day 2. The compounds are prepared in the appropriate growth medium (10% CS+2 mM) glutamine DMEM for NIH3T3C7 cells; 2% FBS+2 mM glutamine DMEM for HER2C7 cells) in a 96 well plate, and serially diluted. A total of 100 μl/well medium of the diluted compounds is added into the cells. The total volume of each well is 200 μl. Quadruplicates (wells) and 11 concentration points are applied to each compound tested.
(§7) 3. After the cells are treated with the compound for 4 days, the cells are washed with PBS and fixed with 200 μl/well ice-cold 10% TCA for one hour at 0-5° C. condition.
(§8) 4. Remove TCA and rinse wells […] with deionized water. Dry plates upside down with paper towels. […]
7. Read the plate at dual wavelengths at 570 nm and 630 nm on Dynatech Elisa plate reader.

[4] = tested on: NIH3T3/IGF-1R cells; test: IGF-I Receptor Growth Assay, 3T3 IGF-1R cells; conditions: Mus musculus, 0.5% FBS, 10 nM IGF-1, read-out: Cell Growth Assays, 3T3 IGF-1R 0.5% FBS
Protocol: Assay 2: IGF-I Receptor Growth Assay
Materials And Methods. The following materials were used to conduct the IGF-I receptor growth assay:
as §1
Using the above described materials, the following steps were performed under aseptic conditions until fixing the cells for the SRB assay:
as §2
Day 1: Compound Preparation--Add DMSO to each compound to make 100 mM stock solutions.
NIH3T31IGF-1R cells--For each 96-well plate, make 15 ml of 10 nM IGF-1/0.5% FBS/2 mM glutamine/DMEM (30 μl of 5 μM IGF-1/15 ml).
Add 3 μl of 100 mM stock of each compound to a tube so 200 μM final. Shake or vortex until it goes into solution. If it is necessary to add additional medium, note the final concentration.
Do 2-fold dilutions (130 μl) from columns 12 to 3 on each plate (column 2 will be for the untreated control), mixing thoroughly. […]

[5] = tested on: MCF7 cells overexpressing HER2 kinase (MCF7-HER2); test: MCF-7/HER-2 SRB Growth Assay; conditions: Homo sapiens, MCF7, 96 h; 0.5% FBS; 4 days; read-out: Cell Growth Assays, MCF7 Her-2 0.5% FBS
[6] = tested on: HER2C7 cells (NIH3T3 engineered to express HER2); test: 3T3/HER2 Cell Growth Assay, 3T3 HER-2 cells; conditions: Mus musculus, NIH3T3, 96 h; 2% FBS; 4 days; read-out: Cell Growth Assays, 3T3 HER-2 2% FBS
Protocol: as §3, §4, §5, §6, §7, §8
7. Read the plate at dual wavelengths at 570 nm and 630 nm on Dynatech Elisa plate reader. […]

IC50 [1]: 2000 nM
IC50 [5]: 800 nM
SMILES: COc1cccc2c1OC(c1ccc(F)cc1)C([N+](=O)[O-])=C2 (stereo not drawn) [Compound A, 2-(4-Fluorophenyl)-8-methoxy-3-nitro-1,2-benzopyran]
IC50 [2]: 5600 nM
IC50 [3]: 70000 nM
IC50 [4]: 2500 nM
IC50 [6]: 1800 nM
